The text below walks through data of patent US20100152298A1, “Present invention relates to a treatment for the management of cancer more specially the use of Flutamide anti-androgen drugsa” (UNIVERSITY OF KUWAIT, priority 2008, published 2010).

The structures appear in SMILES notation.

This test concerns androgen-independent prostate cancer PC-3 cells. In words: Growth, proliferation and viability of PC-3 cells treated with flutamide. Conditions: range of doses of flutamide. It counts as cell-based.

`CC(C)C(=O)Nc1ccc([N+](=O)[O-])c(C(F)(F)F)c1` [flutamide, Flutamide]: the inhibiting growth is given as 20-70%.
